The subject of data set [1] is IL-36-mediated psoriasis-like dermatitis. Description: IL-36α-triggered psoriasis-like dermatitis mouse model, topical treatment of ears. Type of data set: in vivo, C57BL/6 mice. As for the experimental part: Experiments were conducted in accordance with the German law guidelines of animal care. […] At day 7, mice were sacrificed and analysed. For IL-36α-mediated psoriasis induction, ears of male C57BL/6 mice (8-12 weeks old) were treated by intradermal injections using 1 μg murine IL-36α (aa 8-160, R&D) or PBS control for 5 consecutive days. […] Inhibitors were topically applicated 6 h before intradermal injections of IL-36α or PBS were applied. Mice were sacrificed and analysed at day 6. Ear sections from mice were fixed in 10% formalin (Carl Roth) and subsequently embedded in paraffin. 5-μm sections were prepared and incubated with the following antibodies from Cell Signaling: pSTAT3 (9145), pRB (8516) and H3K27me3 (9733). For staining of human skin samples, EZH2 antibody (Cell Signaling, 5246) was used. Antigen retrieval was performed in 1 mM EDTA pH 8.0 for pSTAT3, and 10 mM citrate buffer pH 6.0+0.5% Triton X-100 for EZH2, H3K27me3 and pRB. After incubation with peroxidase-coupled secondary antibodies, sections were stained with DAB substrate.

The test system of data set [2] is non-Hodgkin's lymphoma / DLBCL cell lines. The conditions noted are these: cited from earlier work; for effect on DLBCL cells with EZH2 (Y641) mutations: diffused large B cell lymphoma cells.
Another data set concerns H3K27me3. The conditions noted are these: cited from earlier work.
Data set [3] relates to IMQ-induced psoriasis-like skin inflammation. Nature of the data set: Imiquimod (IMQ)-mediated psoriasis mouse model, topical treatment of ears. Type of data set: in vivo, C57BL/6 mice. The method, then:
Experiments were conducted in accordance with the German law guidelines of animal care. […] At day 7, mice were sacrificed and analysed. For IL-36α-mediated psoriasis induction, ears of male C57BL/6 mice (8-12 weeks old) were treated by intradermal injections using 1 μg murine IL-36α (aa 8-160, R&D) or PBS control for 5 consecutive days. […] Inhibitors were topically applicated 6 h before intradermal injections of IL-36α or PBS were applied. Mice were sacrificed and analysed at day 6.
Sample preparation was performed as described. The following anti-mouse antibodies from BioLegend were used: anti-CD45 FITC (103107), anti-CD11 b PacificBlue (101223), anti-Ly6G PE (127607), anti-F4/80 APC (123115), anti-CD11c Pacific Blue (117322), anti-MHC-II APC (107613), anti-CD172α PE (144011) and anti-Silec-H PE (129605). Anti-PDCA-1 APC (17-2092-80) and anti-αβTCR PE (HM3628) were purchased from Invitrogen, and anti-γδ-TCR APC (17-5711-82) from Sigma. Data was acquired on a LSRII flow cytometer (Becton Dickson).
Ear sections from mice were fixed in 10% formalin (Carl Roth) and subsequently embedded in paraffin. 5-μm sections were prepared and incubated with the following antibodies from Cell Signaling: pSTAT3 (9145), pRB (8516) and H3K27me3 (9733). For staining of human skin samples, EZH2 antibody (Cell Signaling, 5246) was used. Antigen retrieval was performed in 1 mM EDTA pH 8.0 for pSTAT3, and 10 mM citrate buffer pH 6.0+0.5% Triton X-100 for EZH2, H3K27me3 and pRB. After incubation with peroxidase-coupled secondary antibodies, sections were stained with DAB substrate.

For data set [4] the following is noted: experimental animals; cited from earlier work.
The test system of data set [5] is B cell lymphoma xenografts. The conditions noted are these: cited from earlier work.
Another data set deals with SCLC cell lines. The conditions noted are these: three SCLC cell lines; cited from earlier work.
In data set [6] the test system is prostate cancer cell lines. The conditions noted are these: in vitro; cited from earlier work.
In a further data set the test system is cutaneous melanomas. The conditions noted are these: mice; cited from earlier work.
The test system of data set [7] is wild-type and mutant EZH2. The conditions noted are these: cited from earlier work.
The mark [8] stands for this setting: flow cytometry of ears at day 7.

Structures are written as SMILES. “Also recorded” adds a separate entry of the source. Where only a bound is given, the exact number is not on record here.

`CCS(=O)(=O)N1CCC([C@@H](C)n2c(C)c(C(=O)NCc3c(OC)cc(C)[nH]c3=O)c3ccccc32)CC1` [CPI-169]: in data set [1] (immunoblot of ear skin at day 6), the “IL-36-mediated expression of IκBζ, phosphorylation of EZH2 at T345 and activation of STAT3 (pSTAT3 Y705) in skin” value is listed as “suppressed”. The “keratinocyte hyperproliferation and immune cell infiltration” value in [1] (intradermal IL-36α 5 days, topical inhibitor, abemaciclib 0.02 mg, CPI-169 0.05 mg, day 6) is reported as “effectively blocked”. Besides, the “IκBζ target gene expression and key cytokine expression (Il17a, Il23a)” value in data set [1] (qPCR of skin samples) is on record as “effectively blocked”. Besides, the “effect on non-Hodgkin's lymphoma (NHL) cell lines” value in data set [2] (large panel of NHL cell lines) was “triggering cell cycle arrest and ultimately resulting in apoptosis”. Moreover, in the data set with H3K27me3, the “cellular H3K27me3 / H3K27 methylation” value is recorded as “decreases”. Moreover, in data set [3] (ear skin sections of treated mice), the “H3K27me3 expression in the epidermis (EZH2 inhibition)” value is on record as “loss”. In [3] (setting [8]), the “immune cell infiltration (neutrophils, macrophages, T cells)” value is given as “fully abrogated”; the “number of infiltrating plasmacytoid (pDC) and myeloid dendritic cells (mDC)” value was “significantly suppressed”. For the same molecule, the “IκBζ expression, phosphorylation of EZH2 at T345 and of STAT3 at Y705 in the skin” value in data set [3] (immunoblot of skin tissue at day 7) is reported as “completely abrogated”. Besides, the “expression of IκBζ target genes (Cxcl2, Cxcl5) and cytokines (Il17a, Il23a) in skin” value in data set [3] (qPCR of skin samples at day 7) is “significantly downregulated”. Besides, in data set [3] (topical daily for 6 days with IMQ, abemaciclib 0.02 mg, CPI-169 0.05 mg per ear/day, analysed day 7), the “psoriasis-like skin inflammation (ear thickening, keratinocyte hyperproliferation, immune cell infiltration)” value is “completely suppressed; also recorded: completely suppressing”.
Consider `COc1cc(C)[nH]c(=O)c1CNC(=O)c1c(C)n([C@H](C)C2CCN(CC(F)(F)F)CC2)c2ccccc12` [CPI-1205], for which the tolerability entry in data set [4] is on record as “well-tolerated”.
As for `CCc1c(N(CC)C2CCOCC2)cc2oc(C3CCN(C(C)C)CC3)cc2c1C(=O)NCc1c(C)cc(C)[nH]c1=O` [EBI-2511], the “efficacy in Pfeiffer tumor Xenograft models” value in [5] (mouse) is “high in vivo efficacy”.
In the case of `CCC(CC)n1ccc2c(C(=O)NCc3c(C)cc(C)[nH]c3=O)cc(C#N)cc21` [EI1], the “effect on DLBCL cells with EZH2 (Y641) mutations” value (“effect on DLBCL cells with EZH2” below) in [2] is “decreased proliferation, cell cycle arrest, and apoptosis”. The “cellular H3K27me3 / H3K27 methylation” value with H3K27me3 is listed as “blocks”.
In the case of `CCN(c1cc(C#CCN2CCOCC2)cc(C(=O)NCc2c(C)cc(C)[nH]c2=O)c1C)[C@H]1CC[C@H](N(C)CCOC)CC1` [EPZ011989], in [5] (mouse), the “tumor growth, xenograft model of human B cell lymphoma” value is reported as “significant tumor growth inhibition”.
In the case of `CC[C@H](C)n1cc(C)c2c(C(=O)NCc3c(C)cc(C)[nH]c3=O)cc(-c3ccc(N4CCNCC4)nc3)cc21` [GSK126], the “growth of EZH2 mutant DLBCL xenografts” value in data set [5] (mice) is listed as “effectively inhibits”. Besides, in [2], the “effect on DLBCL cells with EZH2” value is listed as “effectively inhibits proliferation”. Further, in the data set on SCLC cell lines, the “growth of SCLC cell lines” value is “induces growth inhibition”.
As for `CCCc1cc(C)[nH]c(=O)c1CNC(=O)c1cc(-c2ccnc(N3CCN(C)CC3)c2)cc2c1cnn2C(C)C` [GSK343], the H3K27me3 levels entry in the data set on H3K27me3 (breast cancer cells in vitro) is “decrease”. Further, the “proliferation of prostate cancer cell lines” value in data set [6] is “inhibits proliferation”.
For the molecule `Cc1cc(C)c(CNC(=O)c2cc(-c3ccc(N4CCN(C)CC4)nc3)cc3c2c(C)cn3C(C)C)c(=O)[nH]1` [GSK503], in the data set with cutaneous melanomas, the “growth and metastasis of cutaneous melanomas” value is “inhibits growth and metastasis”.
With `Cc1cc(C)c(CN2CCc3c(Cl)cc(-c4c(C)noc4C)c(Cl)c3C2=O)c(=O)[nH]1` [PF-06726304], in data set [5] (mouse, in vivo), the “efficacy in diffuse large B-cell lymphoma Karpas-422 tumor model” value is recorded as “good efficacy”.
For the molecule `CCCc1cc(C)[nH]c(=O)c1CNC(=O)c1cc(-c2ccc(N3CCN(C(C)C)CC3)nc2)cc2c1cnn2C(C)C` [UNC1999], the “effect on DLBCL cells with EZH2” value in [2] is “selectively killed”. Moreover, in data set [7], the “difference in potency, wild-type vs mutant Y641N EZH2 methyltransferase activity” value was < 5 fold.

The values above are taken from patent US20220280526A1, “AGENT FOR THE TREATMENT OF PSORIASIS” (EBERHARD KARLS UNIVERSITAET TUEBINGEN MEDIZINISCHE FAKULTAET, priority 2019, published 2022).
